Assay results: PubChem BioAssay (NCI)
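How tested: cells in 96-well plates exposed to compound for 48 hours at five concentrations. Here, GI50 denotes the concentration required for 50% inhibition of growth. TGI: concentration producing complete growth inhibition.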

Tests used:
Assay in all cases: DTP human tumour cell line panel, 48 h
786-0 renal = system: 786-0 renal
A498 renal = system: A498 renal
A549 NSCLC = system: A549 NSCLC
ACHN renal = system: ACHN renal
BT-549 breast = system: BT-549 breast
CAKI-1 renal = system: CAKI-1 renal
CCRF-CEM leukemia = system: CCRF-CEM leukemia
COLO 205 colon = system: COLO 205 colon
DU-145 prostate = system: DU-145 prostate
EKVX NSCLC = system: EKVX NSCLC
HCC-2998 colon = system: HCC-2998 colon
HCT-116 colon = system: HCT-116 colon
HCT-15 colon = system: HCT-15 colon
HL-60(TB) leukemia = system: HL-60(TB) leukemia
HOP-62 NSCLC = system: HOP-62 NSCLC
HOP-92 NSCLC = system: HOP-92 NSCLC
HS 578T breast = system: HS 578T breast
HT29 colon = system: HT29 colon
IGROV1 ovarian = system: IGROV1 ovarian
K-562 leukemia = system: K-562 leukemia
KM12 colon = system: KM12 colon
LOX IMVI melanoma = system: LOX IMVI melanoma
M14 melanoma = system: M14 melanoma
MALME-3M melanoma = system: MALME-3M melanoma
MCF7 breast = system: MCF7 breast
MDA-MB-231 breast = system: MDA-MB-231 breast
MDA-MB-435 = system: MDA-MB-435
MDA-MB-468 breast = system: MDA-MB-468 breast
MOLT-4 leukemia = system: MOLT-4 leukemia
NCI-H226 lung = system: NCI-H226 lung
NCI-H23 lung = system: NCI-H23 lung
NCI-H460 lung = system: NCI-H460 lung
NCI-H522 lung = system: NCI-H522 lung
NCI/ADR-RES ovarian = system: NCI/ADR-RES ovarian
OVCAR-3 ovarian = system: OVCAR-3 ovarian
OVCAR-4 ovarian = system: OVCAR-4 ovarian
OVCAR-5 ovarian = system: OVCAR-5 ovarian
OVCAR-8 ovarian = system: OVCAR-8 ovarian
PC-3 prostate = system: PC-3 prostate
RPMI-8226 leukemia = system: RPMI-8226 leukemia
RXF 393 renal = system: RXF 393 renal
SF-268 CNS = system: SF-268 CNS
SF-295 CNS = system: SF-295 CNS
SF-539 CNS = system: SF-539 CNS
SK-MEL-2 melanoma = system: SK-MEL-2 melanoma
SK-MEL-28 melanoma = system: SK-MEL-28 melanoma
SK-MEL-5 melanoma = system: SK-MEL-5 melanoma
SK-OV-3 ovarian = system: SK-OV-3 ovarian
SN12C renal = system: SN12C renal
SNB-19 CNS = system: SNB-19 CNS
SNB-75 CNS = system: SNB-75 CNS
SR leukemia = system: SR leukemia
SW-620 colon = system: SW-620 colon
T-47D breast = system: T-47D breast
TK-10 renal = system: TK-10 renal
U251 CNS = system: U251 CNS
UACC-257 melanoma = system: UACC-257 melanoma
UACC-62 melanoma = system: UACC-62 melanoma
UO-31 renal = system: UO-31 renal

## CC(=O)Nc1cccc(-c2nc3cc(-c4ccc(O)cc4)ccc3n2C)c1
786-0 renal
  GI50: 28.2 µM
  TGI: > 100 µM
A498 renal
  GI50: 19.2 µM
  TGI: 67.6 µM
A549 NSCLC
  GI50: 12.1 µM
  TGI: 60.1 µM
ACHN renal
  GI50: 5.17 µM
  TGI: 47.7 µM
BT-549 breast
  GI50: 5.07 µM
  TGI: 17.7 µM
CAKI-1 renal
  GI50: 11.5 µM
  TGI: 49.2 µM
CCRF-CEM leukemia
  GI50: 6.06 µM
  TGI: 50 µM
COLO 205 colon
  GI50: 17.3 µM
  TGI: 34.2 µM
DU-145 prostate
  GI50: 16.6 µM
  TGI: 65.3 µM
EKVX NSCLC
  GI50: 13.8 µM
  TGI: 51 µM
HCC-2998 colon
  GI50: 17.1 µM
  TGI: 74 µM
HCT-116 colon
  GI50: 15.1 µM
  TGI: 50.9 µM
HCT-15 colon
  GI50: 18.8 µM
  TGI: 68.8 µM
HL-60(TB) leukemia
  GI50: 10.6 µM
  TGI: 39.7 µM
HOP-62 NSCLC
  GI50: 28.1 µM
  TGI: 65.4 µM
HOP-92 NSCLC
  GI50: 11.7 µM
  TGI: > 100 µM
HS 578T breast
  GI50: 19.7 µM
  TGI: > 100 µM
HT29 colon
  GI50: 24 µM
  TGI: > 100 µM
IGROV1 ovarian
  GI50: 14.4 µM
  TGI: 46.6 µM
K-562 leukemia
  GI50: 8.91 µM
  TGI: > 100 µM
KM12 colon
  GI50: 12.8 µM
  TGI: 29.7 µM
LOX IMVI melanoma
  GI50: 14.3 µM
  TGI: 31.7 µM
M14 melanoma
  GI50: 12.9 µM
  TGI: 26.8 µM
MALME-3M melanoma
  GI50: 5.01 µM
  TGI: 18.6 µM
MCF7 breast
  GI50: 4.38 µM
  TGI: 22.2 µM
MDA-MB-231 breast
  GI50: 23.7 µM
  TGI: > 100 µM
MDA-MB-435
  GI50: 5.29 µM
  TGI: 19.3 µM
MDA-MB-468 breast
  GI50: 1.83 µM
  TGI: 7.12 µM
MOLT-4 leukemia
  GI50: 4.6 µM
  TGI: 29.5 µM
NCI-H226 lung
  GI50: 7.76 µM
  TGI: 51.7 µM
NCI-H23 lung
  GI50: 10.6 µM
  TGI: 31 µM
NCI-H460 lung
  GI50: 11.6 µM
  TGI: 36.4 µM
NCI-H522 lung
  GI50: 5.16 µM
  TGI: 20.7 µM
NCI/ADR-RES ovarian
  GI50: 21 µM
  TGI: 63.5 µM
OVCAR-3 ovarian
  GI50: 16.2 µM
  TGI: 63.5 µM
OVCAR-4 ovarian
  GI50: 3.64 µM
  TGI: 27.2 µM
OVCAR-5 ovarian
  GI50: 25.8 µM
  TGI: 93.5 µM
OVCAR-8 ovarian
  GI50: 10.8 µM
  TGI: 26.9 µM
PC-3 prostate
  GI50: 13.7 µM
  TGI: 65 µM
RPMI-8226 leukemia
  GI50: 4.7 µM
  TGI: 23.8 µM
RXF 393 renal
  GI50: 11.4 µM
  TGI: 39.5 µM
SF-268 CNS
  GI50: 17.7 µM
  TGI: > 100 µM
SF-295 CNS
  GI50: 10.1 µM
  TGI: 36.2 µM
SF-539 CNS
  GI50: 16.1 µM
  TGI: 62.8 µM
SK-MEL-2 melanoma
  GI50: 8.73 µM
  TGI: 26.1 µM
SK-MEL-28 melanoma
  GI50: 11.4 µM
  TGI: 29.6 µM
SK-MEL-5 melanoma
  GI50: 3.24 µM
  TGI: 11.6 µM
SK-OV-3 ovarian
  GI50: 25.8 µM
  TGI: 96.5 µM
SN12C renal
  GI50: 17.8 µM
  TGI: > 100 µM
SNB-19 CNS
  GI50: 27.2 µM
  TGI: > 100 µM
SNB-75 CNS
  GI50: 9.43 µM
  TGI: 46.3 µM
SR leukemia
  GI50: 12.3 µM
  TGI: > 100 µM
SW-620 colon
  GI50: 16.8 µM
  TGI: 42.9 µM
T-47D breast
  GI50: 2.91 µM
  TGI: 11.9 µM
TK-10 renal
  GI50: 19.4 µM
  TGI: 81.5 µM
U251 CNS
  GI50: 18.3 µM
  TGI: > 100 µM
UACC-257 melanoma
  GI50: 3.76 µM
  TGI: 15.5 µM
UACC-62 melanoma
  GI50: 7.42 µM
  TGI: 24.9 µM
UO-31 renal
  GI50: 10.8 µM
  TGI: 31.8 µM
